Laboratory results reported in PMC8286840, “Identifying SARS-CoV-2 antiviral compounds by screening for small molecule inhibitors of Nsp3 papain-like protease” (Biochemical Journal, 2021).
Counter-ions that a name gives are not always drawn. Like-named read-outs stand apart in the source and are kept apart here. Where no end group is shown, it is not given here.

How the values were obtained:
[1] = molecular target: T1, SARS-CoV-2 PLpro (nsp3 1564–1878) (Severe acute respiratory syndrome coronavirus 2, UniProt P0DTD1); assay: biochemical; design: FRET-quenched peptide (Pro3) cleavage by PLpro, 10 min pre-incubation, slope over 20 min, normalised to no-compound control; settings: low concentration screen, read-out: % of control remaining
[2] = molecular target: T1, SARS-CoV-2 PLpro (nsp3 1564–1878); assay: biochemical; design: FRET-quenched peptide (Pro3) cleavage by PLpro, 10 min pre-incubation, slope over 20 min, normalised to no-compound control; settings: high concentration screen, read-out: % of control remaining

Molecule: C[C@@H]1CCN(C(=O)CC#N)C[C@@H]1N(C)c1ncnc2[nH]ccc12 [Tofacitinib citrate]
- remaining activity at 1.25 µM ([1]; Well no.=5551): 98.9%
- remaining activity at 3.75 µM ([2]; Well no.=5551): 109%

Molecule: COc1ccc(Nc2nc(N)nc(CN3CCCCC3)n2)cc1 [BRD32048]
- remaining activity at 1.25 µM ([1]; Well no.=5572): 91.7%
- remaining activity at 3.75 µM ([2]; Well no.=5572): 98.9%

Molecule: KIPYIL [Neuromedin N]
- remaining activity at 1.25 µM ([1]; Well no.=8061): 91.8%
- remaining activity at 1.25 µM ([1]; Well no.=8502): 105%
- remaining activity at 3.75 µM ([2]; Well no.=8061): 90.1%
- remaining activity at 3.75 µM ([2]; Well no.=8502): 102%

Molecule: OCCN1CCN(CC/C=C2/c3ccccc3Sc3ccc(C(F)(F)F)cc32)CC1 [cis-(Z)-Flupenthixol dihydrochloride]
- remaining activity at 1.25 µM ([1]; Well no.=617): 99.6%
- remaining activity at 3.75 µM ([2]; Well no.=617): 98.7%

Molecule: CN1CCN(c2c(F)cc3c(=O)c(C(=O)O)cn4c3c2SCC4)CC1 [Rufloxacin]
- remaining activity at 1.25 µM ([1]; Well no.=2239): 98.6%
- remaining activity at 3.75 µM ([2]; Well no.=2239): 97.3%

Molecule: O[C@@H]1[C@@H](O)[C@H](OC/C=C/c2ccccc2)O[C@H](CO[C@@H]2OC[C@H](O)[C@H](O)[C@H]2O)[C@H]1O [Rosavin]
- remaining activity at 1.25 µM ([1]; Well no.=5422): 101%
- remaining activity at 3.75 µM ([2]; Well no.=5422): 104%

Molecule: O=[N+]([O-])c1ccc2c(c1)S(=O)(=O)C=C2 [Stattic]
- remaining activity at 1.25 µM ([1]; Well no.=4748): 104%
- remaining activity at 3.75 µM ([2]; Well no.=4748): 104%

Molecule: CCCCC[C@@H](O)/C=C/[C@H]1[C@H](C/C=C\CCCC(=O)O)[C@@H](O)C[C@@H]1O [9b,11a Prostaglandin F2]
- remaining activity at 1.25 µM ([1]; Well no.=4521): 101%
- remaining activity at 3.75 µM ([2]; Well no.=4521): 103%

Molecule: O=c1ncccn1[C@@H]1O[C@H](CO)[C@@H](O)[C@H]1O [Zebularine]
- remaining activity at 1.25 µM ([1]; Well no.=7818): 97%
- remaining activity at 3.75 µM ([2]; Well no.=7818): 96.3%

Molecule: CN1CCC(c2c[nH]c3ccc(O)cc23)CC1 [BRL 54443 maleate]
- remaining activity at 1.25 µM ([1]; Well no.=231): 101%
- remaining activity at 3.75 µM ([2]; Well no.=231): 101%

Molecule: CC(=O)OC(C)C[N+](C)(C)C (stereo not drawn) [Acetyl-beta-methylcholine chloride]
- remaining activity at 1.25 µM ([1]; Well no.=107): 98.7%
- remaining activity at 3.75 µM ([2]; Well no.=107): 98.4%

Molecule: O=C(O)C[C@H](O)C[C@H](O)/C=C/c1c(C2CC2)nc2ccccc2c1-c1ccc(F)cc1 [Pitavastatin Calcium]
- remaining activity at 1.25 µM ([1]; Well no.=8334): 97.4%
- remaining activity at 3.75 µM ([2]; Well no.=8334): 95.7%

Molecule: C[C@H](N[C@@H](CCc1ccccc1)C(=O)O)C(=O)N1CCC[C@H]1C(=O)O [Enalaprilat Dihydrate]
- remaining activity at 1.25 µM ([1]; Well no.=8094): 96.7%
- remaining activity at 3.75 µM ([2]; Well no.=8094): 98.4%

Molecule: CC[C@H](CC[C@@H](C)[C@H]1CC[C@H]2[C@@H]3CC=C4C[C@@H](O)CC[C@]4(C)[C@H]3CC[C@]12C)C(C)C
- remaining activity at 1.25 µM ([1]; Well no.=3416): 93.1%
- remaining activity at 3.75 µM ([2]; Well no.=3416): 96.8%

Molecule: CCCCOC(=O)NC(=O)C1c2ccccc2Oc2ccccc21 [Ro 67-4853]
- remaining activity at 1.25 µM ([1]; Well no.=5989): 102%
- remaining activity at 3.75 µM ([2]; Well no.=5989): 99.5%

Molecule: Oc1ccc(O)cc1 [Hydroquinone]
- remaining activity at 1.25 µM ([1]; Well no.=472): 102%
- remaining activity at 1.25 µM ([1]; Well no.=3849): 105%
- remaining activity at 3.75 µM ([2]; Well no.=472): 99.1%
- remaining activity at 3.75 µM ([2]; Well no.=3849): 106%

Molecule: Cn1c(=O)c(F)c(Nc2ccc(I)cc2F)c2c(=O)n(C[C@@H](O)CO)cnc21 [TAK-733]
- remaining activity at 1.25 µM ([1]; Well no.=4954): 101%
- remaining activity at 3.75 µM ([2]; Well no.=4954): 97.8%

Molecule: CC[C@@H]1C(=O)OC[C@@H]1Cc1cncn1C [Pilocarpine (Hydrochloride)]
- remaining activity at 1.25 µM ([1]; Well no.=7627): 99.7%
- remaining activity at 3.75 µM ([2]; Well no.=7627): 96.7%

Molecule: NCCNc1nonc1C(=Nc1ccc(F)c(Br)c1)NO [IDO-IN-3]
- remaining activity at 1.25 µM ([1]; Well no.=8693): 107%
- remaining activity at 3.75 µM ([2]; Well no.=8693): 101%

Molecule: CC[C@H](C)[C@H](NC(=O)[C@H](Cc1ccc(O)cc1)NC(=O)[C@@H](NC(=O)[C@H](CCCNC(=N)N)NC(=O)[C@@H](N)CC(=O)O)C(C)C)C(=O)N[C@@H](Cc1cnc[nH]1)C(=O)N1CCC[C@H]1C(=O)N[C@@H](Cc1ccccc1)C(=O)O [Angiotensin II human]
- remaining activity at 1.25 µM ([1]; Well no.=8345): 93.9%
- remaining activity at 3.75 µM ([2]; Well no.=8345): 97.1%

Molecule: O=c1[nH]nc(Sc2ncc([N+](=O)[O-])s2)n1-c1ccc2c(c1)OCCO2 [BI-78D3]
- remaining activity at 1.25 µM ([1]; Well no.=6058): 101%
- remaining activity at 3.75 µM ([2]; Well no.=6058): 96.9%

Molecule: O=C(Nc1cccc(Cl)c1)c1ccccn1 [VU0364770]
- remaining activity at 1.25 µM ([1]; Well no.=7761): 102%
- remaining activity at 3.75 µM ([2]; Well no.=7761): 105%

Molecule: CN1CCN(c2nc(C3=C(c4c[nH]c5ccccc45)C(=O)NC3=O)c3ccccc3n2)CC1 [Sotrastaurin (AEB071)]
- remaining activity at 1.25 µM ([1]; Well no.=4747): 105%
- remaining activity at 3.75 µM ([2]; Well no.=4747): 109%

Molecule: O=C(Nc1ccc(S(=O)(=O)Nc2nccs2)cc1)C(c1ccccc1)c1ccccc1 [2,2-diphenyl-N-{4-[(1,3-thiazol-2-ylamino)sulfonyl]phenyl}acetamide]
- remaining activity at 1.25 µM ([1]; Well no.=5558): 92.9%
- remaining activity at 3.75 µM ([2]; Well no.=5558): 96.4%

Molecule: CCC[C@H](N[C@@H](C)C(=O)N1[C@H](C(=O)O)C[C@@H]2CCCC[C@@H]21)C(=O)OCC [Perindopril (erbumine)]
- remaining activity at 1.25 µM ([1]; Well no.=8070): 106%
- remaining activity at 3.75 µM ([2]; Well no.=8070): 102%

Molecule: CC(C)OC(=O)N1CCC(Oc2ncnc3c2cnn3-c2ccc(S(C)(=O)=O)cc2F)CC1 [APD668]
- remaining activity at 1.25 µM ([1]; Well no.=6274): 105%
- remaining activity at 3.75 µM ([2]; Well no.=6274): 104%

Molecule: BrC1C(Br)C(Br)C(Br)C(Br)C1Br (stereo not drawn) [1,2,3,4,5,6-Hexabromocyclohexane - 1,2,3,4,5,6-Hexabromocyclohexane]
- remaining activity at 1.25 µM ([1]; Well no.=2524): 96.3%
- remaining activity at 3.75 µM ([2]; Well no.=2524): 97.7%

Molecule: C[C@H](N)[C@H](O)c1ccccc1 [Phenylpropanolamine]
- remaining activity at 1.25 µM ([1]; Well no.=2292): 96.7%
- remaining activity at 3.75 µM ([2]; Well no.=2292): 97.2%

Molecule: NC1CCN(c2nc3c(cc2F)c(=O)c(C(=O)O)cn3-c2ccc(F)cc2F)C1 (stereo not drawn) [Tosufloxacin]
- remaining activity at 1.25 µM ([1]; Well no.=1962): 98.1%
- remaining activity at 3.75 µM ([2]; Well no.=1962): 93.3%

Molecule: CN1N=C2CCN(C(=O)[C@@H](COCc3ccccc3)NC(=O)C(C)(C)N)C[C@@]2(Cc2ccccc2)C1=O [Capromorelin (Tartrate)]
- remaining activity at 1.25 µM ([1]; Well no.=7235): 96.9%
- remaining activity at 3.75 µM ([2]; Well no.=7235): 102%

Molecule: NC(=O)N1c2ccccc2CC(=O)c2ccccc21 [Oxcarbazepine]
- remaining activity at 1.25 µM ([1]; Well no.=2053): 103%
- remaining activity at 3.75 µM ([2]; Well no.=2053): 104%

Molecule: OC[C@@H](O)[C@@H](O)CO [meso-Erythritol]
- remaining activity at 1.25 µM ([1]; Well no.=6547): 107%
- remaining activity at 3.75 µM ([2]; Well no.=6547): 106%

Molecule: NC(=O)c1cccc(NC(=O)/C=C/c2c[nH]c3ccccc23)c1 [(E)-3-(3-(1H-indol-3-yl)acrylamido)benzamide]
- remaining activity at 1.25 µM ([1]; Well no.=5576): 93.5%
- remaining activity at 3.75 µM ([2]; Well no.=5576): 93.4%

Molecule: CN1C[C@H](C(=O)N[C@]2(C)O[C@@]3(O)[C@@H]4CCCN4C(=O)[C@H](Cc4ccccc4)N3C2=O)C=C2c3cccc4[nH]cc(c34)C[C@H]21 [Ergotamine]
- remaining activity at 1.25 µM ([1]; Well no.=1726): 99.5%
- remaining activity at 3.75 µM ([2]; Well no.=1726): 98.3%
